Measurements as given in patent US20230000816A1, “SODIUM-GLUCOSE LINKED TRANSPORTER INHIBITORS FOR THE MANAGEMENT OF CHRONIC KIDNEY DISEASE, HYPERTENSION, AND HEART FAILURE IN COMPANION ANIMALS” (INCREVET, INC., priority 2019, published 2023).
In brackets after ≈: the same amount, converted by molar mass.

Experiments:
Sprague-Dawley rats = assay: PPAR-γ agonist (pioglitazone)-mediated fluid retention / plasma expansion model, 7 days, drugs in drinking water; format: in vivo, rat
Text: It has been recognized in human clinical practice that an undesirable side effect of PPAR-γ agonists of the thiazolidinedione class is fluid retention and edema, which limits their use in patients with congestive heart failure. The mechanism of action of the thiazolidinediones is believed to be through stimulation of expression of the epithelial sodium channel (ENaC) in the kidney, resulting in an increased uptake of sodium ions from the distal tubule. Sodium retention and the associated expansion of extracellular fluid volume are characteristic features of congestive heart failure in multiple species. […] The sodium channel blocker amiloride was delivered in drinking water to a third group of rats as a comparator. Plasma expansion was measured by hematocrit. […] Food weight was recorded to measure consumption over the course of the experiment. […] Full bottles were pre-weighed and the weights recorded to allow consumption to be measured over the course of the experiment. On days 1 and 7, rats were warmed using a heating pad and lightly anesthetized using isoflurane. Using a sterile scalpel blade, a small tail nick was made on the distal one third of the tail. Blood was collected in a heparinized microcapillary tube sealed with putty at one end and stored on ice until centrifugation (5000 rpm, 5 min). Plasma volume was determined using a microhematocrit capillary tube reader card. On day 7, rats, food and water bottles were again weighed and recorded and hematocrits were determined using blood collected by a tail nick.

in vivo = details: dog; for Tmax / half-life / AUC(0-inf) / AUC(0-t) / CL/F / Cmax / Vd/F: beagle, po
Description: Groups of four purpose-bred beagles per cohort were administered ascending doses of bexagliflozin in the form of a proline co-crystal consisting of two moles of L-proline for every mole of bexagliflozin. The co-crystal was dissolved in 10% PEG400 and administered by oral gavage to dogs that had been fasted overnight. Control dogs were administered 10% PEG400. One hour after dosing, glucose solution (2 g kg^−1, 5 ml kg^−1) was administered by gavage. Serum glucose concentrations were quantitated by an automated clinical chemistry analyzer for samples collected before dosing, before glucose challenge, and 15, 30, 60, and 120 min after glucose challenge. Urine was collected from 0 to 4 h, 4 to 8 h and 8 to 24 h after dosing for electrolyte analyses (Na^+, K^+, Cl^− and Ca^2+) and glucose measurement. Whole blood samples of approximately 500 μL were collected from the cephalic vein 0, 0.25, 0.5, 1, 2, 4, 8, 12 and 24 h after dosing for pharmacokinetic analysis.

cats = assay: Urinary glucose excretion in cats given bexagliflozin tablets; format: in vivo, cat
cats with diabetes = assay: Owner and veterinarian assessments of vitality and weight in diabetic cats; format: in vivo, cat
Text: Assessments by both owners and veterinarians of correlative measures of cat vitality were also collected over the course of various studies. Some of the relevant measures for this analysis are the subjective impressions of cat musculature, solicited from both owners and veterinarians, and owner views of cat overall activity as well as leaping ability. The rating instrument was a 4-point scale with 0=excellent, 1=good, 2=fair and 3=poor.

Solubility = format: physicochemical
[1] = rats, day 1 to day 7, mean ± SEM
[2] = rats, pioglitazone diet, mean ± SEM
[3] = rats, relative to day 1, mean ± SEM

OC[C@H]1O[C@@H](c2ccc(Cl)c(Cc3ccc(OCCOC4CC4)cc3)c2)[C@H](O)[C@@H](O)[C@@H]1O [Bexagliflozin, (2S,3R,4R,5 S,6R)-2-(4-chloro-3-(4-(2-cyclopropoxyethoxy)benzyl)phenyl)-6-(hydroxymethyl)tetrahydro-2H-pyran-3,4,5-triol]
Plasma volume, Day 7 (Sprague-Dawley rats; rats after 7 days pioglitazone diet, group mean ± SEM): 54.7 ± 0.6 % of blood volume | Plasma volume, Day 1 (Sprague-Dawley rats; rats on 0.03% pioglitazone diet, by hematocrit, group mean ± SEM): 52.9 ± 0.5 % of blood volume | Effect on pioglitazone-mediated plasma expansion (conclusion) (Sprague-Dawley rats; rats, 7 days): substantially attenuates pioglitazone-mediated plasma expansion | Body Weight (%), Δ (percent mass gain) (Sprague-Dawley rats; [1]): 4.8 ± 1.3 % | Body Weight (g), Δ (Sprague-Dawley rats; [1]): 17.5 ± 4.7 g | Body Weight (%), Δ (percent mass gain) (Sprague-Dawley rats; rats, day 1 to day 7, mean ± SEM, listed as bexagliflozin): 4.8% | Plasma volume, Δ (day 1 to day 7) (Sprague-Dawley rats; rats, pioglitazone diet, group mean ± SEM): 1.8 ± 0.8 % of blood volume | Body Weight (g), Day 1 (Sprague-Dawley rats; [2]): 371.7 ± 5.0 ^ g | Body Weight (g), Day 7 (Sprague-Dawley rats; [2]): 389.2 ± 5.7 ^†† g | Body Weight (%), Day 1 (Sprague-Dawley rats; [3]): 100 ± 0 ^ % | Body Weight (%), Day 7 (Sprague-Dawley rats; [3]): 104.8 ± 1.3 ^†† % | Tmax (in vivo): ~30 min | half-life (in vivo): 100 to 314 min | AUC(0-inf) (in vivo; 0.02 mg/kg): 45.3 ± 7.9 ng·h/mL | AUC(0-t) (in vivo; 0.02 mg/kg): 35.6 ± 5.2 ng·h/mL | CL/F (in vivo; 0.02 mg/kg): 7.6 mL/min/kg | Cmax (in vivo; 0.02 mg/kg): 16.3 ± 2.7 ng/mL | Tmax (in vivo; 0.02 mg/kg): 30 min | Vd/F (in vivo; 0.02 mg/kg): 1.08 ± 0.128 L/kg | half-life (in vivo; 0.02 mg/kg): 100 ± 15.6 min | AUC(0-inf) (in vivo; 0.067 mg/kg): 257 ± 62 ng·h/mL | AUC(0-t) (in vivo; 0.067 mg/kg): 240 ± 55 ng·h/mL | CL/F (in vivo; 0.067 mg/kg): 4.53 mL/min/kg | Cmax (in vivo; 0.067 mg/kg): 72.9 ± 11 ng/mL | Tmax (in vivo; 0.067 mg/kg): 30 min | Vd/F (in vivo; 0.067 mg/kg): 1.06 ± 0.067 L/kg | half-life (in vivo; 0.067 mg/kg): 169 ± 36.6 min | AUC(0-inf) (in vivo; 0.2 mg/kg): 769 ± 95 ng·h/mL | AUC(0-t) (in vivo; 0.2 mg/kg): 725 ± 80 ng·h/mL | CL/F (in vivo; 0.2 mg/kg): 4.42 mL/min/kg | Cmax (in vivo; 0.2 mg/kg): 233 ± 26 ng/mL | Tmax (in vivo; 0.2 mg/kg): 15 min | Vd/F (in vivo; 0.2 mg/kg): 1.12 ± 0.08 L/kg | half-life (in vivo; 0.2 mg/kg): 177 ± 16.8 min | AUC(0-inf) (in vivo; 0.67 mg/kg): 2670 ± 131 ng·h/mL | AUC(0-t) (in vivo; 0.67 mg/kg): 2600 ± 104 ng·h/mL | CL/F (in vivo; 0.67 mg/kg): 4.2 mL/min/kg | Cmax (in vivo; 0.67 mg/kg): 801 ± 46 ng/mL | Tmax (in vivo; 0.67 mg/kg): 30 min | Vd/F (in vivo; 0.67 mg/kg): 1.89 ± 0.398 L/kg | half-life (in vivo; 0.67 mg/kg): 314 ± 73.8 min | AUC(0-inf) (in vivo; 2 mg/kg): 8700 ± 1470 ng·h/mL | AUC(0-t) (in vivo; 2 mg/kg): 8600 ± 1520 ng·h/mL | CL/F (in vivo; 2 mg/kg): 3.95 mL/min/kg | Cmax (in vivo; 2 mg/kg): 2200 ± 539 ng/mL | Tmax (in vivo; 2 mg/kg): 30 min | Vd/F (in vivo; 2 mg/kg): 1.37 ± 0.601 L/kg | half-life (in vivo; 2 mg/kg): 233 ± 52.8 min | dose proportionality of Cmax and AUC (in vivo): roughly dose proportional | % of the maximum pharmacodynamic effect (cats; cats, dose 200 μg kg^−1, based on results in purpose-bred cats): 28% | % of the maximum pharmacodynamic effect (cats; cats, dose 400 μg kg^−1): 44% | % of the maximum pharmacodynamic effect (cats; cats, dose 800 μg kg^−1): 61% | % of the maximum pharmacodynamic effect (cats; cats, dose 1600 μg kg^−1): 76% | % of the maximum pharmacodynamic effect (cats; cats, dose 3200 μg kg^−1): 86% | % of the maximum pharmacodynamic effect (cats; cats, dose 6400 μg kg^−1): 93% | % of the maximum pharmacodynamic effect (cats; cats, dose 12800 μg kg^−1): 96% | % of the maximum pharmacodynamic effect (cats; cats, dose 25600 μg kg^−1): 98% | ED50 for urinary glucose excretion (cats; cats, tablets of varying strengths, simple logistic model): approximately 0.5 mg kg^−1 | Emax for urinary glucose excretion (cats; healthy cats): 2.21 g of glucose per kg of body mass | owner assessment of activity (cats with diabetes; 4-point scale): more active | owner assessment of leaping ability (cats with diabetes; 4-point scale): better leaping ability | veterinarian and owner assessments of musculature (cats with diabetes; 4-point scale, statistically significant): musculature of study cats had improved | mean cat weight (cats with diabetes; by visit, highly significant): mean cat weight increased | solubility in ethanol, propylene glycol and PEGs relative to water (Solubility): more soluble | solubility (Solubility; water at 25° C.): ~500 µg/mL (≈ 1080 µM)
